What was measured:
[1] = system: Notch proteolysis by γ-secretase; experiment: Notch assay (Myc-tagged Notch NΔE in H4-APP751 neuroglioma cells); format: cell-based; settings: H4-APP751 neuroglioma cells transfected with Myc-tagged Notch (NΔE) construct; Fig. 3
Description: Notch assays were carried out as described previously ([Wagner et al., 2014]).

[2] = set-up: method as in Soares et al., 2016; Toyn et al., 2016; settings: ref Soares et al., 2016, Toyn et al.; cited from earlier work

Compound | Notch proteolysis [1] | hepatic safety in repeated oral dosing studies in humans [2]
C[C@H](NC(=O)Cc1cc(F)cc(F)c1)C(=O)N[C@H](C(=O)OC(C)(C)C)c1ccccc1 [N-[N-(3,5-difluorophenacetyl)-L-alanyl]-S-phenylglycine t-butyl ester, reference compound] | potently inhibits Notch proteolysis | 
CNc1nc(Nc2ccc(-n3cnc(C)n3)c(OC)c2)nc2c1CC[C@H]2c1ccc(F)cc1 [BMS-932481] |  | transient elevations in plasma concentrations of enzymes associated with hepatic toxicity
